Experimental findings from EP4755881A1 (Wuhan Createrna Science and Technology Co., Ltd., priority 2023, dated 2025) are described below.

Like-named read-outs stand apart in the source and are kept apart here.

The target of the assay is hLPAR1 (human lysophosphatidic acid receptor 1, Accession No.: NM_001401.4) (Homo sapiens, UniProt Q92633). Description: cell-based. The conditions noted are these: FLIPR method, CHO-K1 cells overexpressing hLPAR1. The procedure:
The antagonist properties of the compounds in the present disclosure were determined using the FLIPR (Fluorometric Imaging Plate Reader) method in CHO-K1 cells (Chinese Hamster Ovary cells K1, ATCC) overexpressing hLPAR1 (human lysophosphatidic acid receptor 1, Accession No.: NM_001401.4).
CHO-K1 cells stably expressing hLPAR1 were placed in a cell culture incubator at 37°C with 5% CO2 and cultured in F-12 medium containing 10% FBS (fetal bovine serum, Gibco, 10099-141), 1% penicillin-streptomycin (Gibco, 15140-122), and 0.4 mg/mL Hygromycin B (Gibco, 10687010). 18-24 hours before the FLIPR experiment, the cells were seeded into a 96-well plate at a density of 250,000 cells/mL (25,000 cells/well) and incubated overnight in the cell culture incubator. On the day of the experiment, the medium was removed, and the cells were washed with FLIPR buffer (2.5 mM probenecid (Thermo, P36400), 1.3 mM CaCl2, 3.3 mM Na2CO3, 1 mM MgSO4, 20 mM HEPES (Invitrogen, 15630080), 1× HBSS (Invitrogen, 14065056), 0.1% BSA (BioSharp, 70080030)). 75 µL of […] Fluo-4 AM fluorescent dye (Thermo, F14202) was added to each well and incubated for 1.0 hour at 37°C for dye loading. The 96-well plate was then washed once with buffer, and 50 µL of buffer containing the test compound or vehicle was added to each well, followed by incubation at room temperature for 30 min. The cell plate was then placed into the FLIPR for baseline fluorescence measurement (excitation wavelength at 485 nm, emission wavelength at 525 to 535 nm). Subsequently, 50 µL/well of agonist (final concentration 1 µM oleoyl-L-α-lysophosphatidic acid sodium salt (Sigma, L7260)) or vehicle (ultrapure water) was added, and fluorescence values were measured at 1-second intervals for 2 min. Finally, the output fluorescence counts were analyzed using GraphPad Prism 9.0 software log(inhibitor) vs. response--Variable slope (four parameters) equation to calculate IC50 values.
Table 1: Inhibitory activity data of compounds against LPAR1

Where [1] appears, read: Table 1, read-out: LPAR1 inhibitory activity IC50.
Where [2] appears, read: LPAR1 inhibitory activity IC50, Table 1.

Sequence of hLPAR1 (human lysophosphatidic acid receptor 1, Accession No.: NM_001401.4) (Q92633 whole entry): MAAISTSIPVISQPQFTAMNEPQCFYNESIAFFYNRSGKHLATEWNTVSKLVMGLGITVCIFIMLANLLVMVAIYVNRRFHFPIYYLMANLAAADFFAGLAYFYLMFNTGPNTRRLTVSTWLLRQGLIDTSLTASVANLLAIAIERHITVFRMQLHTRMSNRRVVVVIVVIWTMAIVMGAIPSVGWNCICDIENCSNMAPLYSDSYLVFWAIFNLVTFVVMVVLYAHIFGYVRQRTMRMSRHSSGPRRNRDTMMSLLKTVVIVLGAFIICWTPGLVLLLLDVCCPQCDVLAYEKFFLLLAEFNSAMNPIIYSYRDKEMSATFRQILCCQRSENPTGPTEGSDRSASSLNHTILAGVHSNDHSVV

A word on the IC50: it is the midpoint of a concentration-inhibition curve. For `CCCC(C)OC(=O)Nc1c(-c2ccc(C#CC3(CC(=O)O)CC3)c(C)n2)nnn1C` (stereo not shown) [compound 010, 2-(1-((2-methyl-6-(1-methyl-5-(((pentan-2-yloxy)carbonyl)amino)-1H-1,2,3-triazol-4-yl)pyridin-3-yl)ethynyl)cyclopropyl)acetic acid], under setting [1], the IC50 is 56.2 nM.
In the case of `Cc1nc(-c2nnn(C)c2NC(=O)O[C@H](C)c2ccccc2Cl)ccc1C#CC1(CC(=O)O)CC1` [compound 013, (R)-2-(1-((6-(5-(((1-(2-chlorophenyl)ethoxy)carbonyl)amino)-1-methyl-1H-1,2,3-triazol-4-yl)-2-methylpyridin-3-yl)ethynyl)cyclopropyl)acetic acid], under setting [1], the IC50 was found to be 2.6 nM.
As for `Cc1nc(-c2nnn(C)c2NC(=O)O[C@H](C)c2ccccc2F)ccc1C#CC1(CC(=O)O)CC1` [compound 014, (R)-2-(1-((6-(5-(((1-(2-fluorophenyl)ethoxy)carbonyl)amino)-1-methyl-1H-1,2,3-triazol-4-yl)-2-methylpyridin-3-yl)ethynyl)cyclopropyl)acetic acid], under setting [1], the IC50 stood at 7.7 nM.
Consider `Cc1nc(-c2nnn(C)c2COC(=O)N(C)CC2CCC2)ccc1C#CC1(CC(=O)O)CC1` [compound 017], for which the IC50 (read-out: LPAR1 inhibitory activity IC50, Table 1) was determined as 42.8 nM.
As to `Cc1nc(-c2nnn(C)c2COC(=O)N(C)C2CCCC2)ccc1C#CC1(CC(=O)O)CC1` [compound 018, 2-(1-((6-(5-(((cyclopentyl(methyl)carbamoyl)oxy)methyl)-1-methyl-1H-1,2,3-triazol-4-yl)-2-methylpyridin-3-yl)ethynyl)cyclopropyl)acetic acid], under setting [1], the IC50 was 55.2 nM.
The same measure, in the same setting: under `Cc1nc(-c2nnn(C)c2NC(=O)O[C@H](C)c2ccccc2)ccc1C#CC1(CC(=O)O)CC1` [compound 022, (R)-2-(1-((2-methyl-6-(1-methyl-5-(((1-phenylethoxy)carbonyl)amino)-1H-1,2,3-triazol-4-yl)pyridin-3-yl)ethynyl)cyclopropyl)acetic acid] stands 9.5 nM; under `Cc1nc(-c2nnn(C)c2NC(=O)OC(C)c2cc(F)cnc2Cl)ccc1C#CC1(CC(=O)O)CC1` (stereo not shown) [compound 023, 2-(1-((6-(5-(((1-(2-chloro-5-fluoropyridin-3-yl)ethoxy)carbonyl)amino)-1-methyl-1H-1,2,3-triazol-4-yl)-2-methylpyridin-3-yl)ethynyl)cyclopropyl)acetic acid], 45.2 nM.
Consider `Cc1nc(-c2nnn(C)c2COC(=O)N(C)CC2CCC2(F)F)ccc1C#CC1(CC(=O)O)CC1` (stereo not shown) [compound 026, 2-(1-((6-(5-(((((2,2-difluorocyclobutyl)methyl)(methyl)carbamoyl)oxy)methyl)-1-methyl-1H-1,2,3-triazol-4-yl)-2-methylpyridin-3-yl)ethynyl)cyclopropyl)acetic acid], for which, under setting [1], the IC50 is 52.7 nM.
As for `Cc1nc(-c2nnn(C)c2NC(=O)OC(C)C2CC(F)(F)C2)ccc1C#CC1(CC(=O)O)CC1` (stereo not shown) [compound 029, 2-(1-((6-(5-(((1-(3,3-difluorocyclobutyl)ethoxy)carbonyl)amino)-1-methyl-1H-1,2,3-triazol-4-yl)-2-methylpyridin-3-yl)ethynyl)cyclopropyl)acetic acid], the IC50 under setting [1] was 219 nM.
As to `Cc1nc(-c2nnn(C)c2COC(=O)N(C)[C@H](C)C2CC2)ccc1C#CC1(CC(=O)O)CC1` [compound 030, (R)-2-(1-((6-(5-((((1-cyclopropylethyl)(methyl)carbamoyl)oxy)methyl)-1-methyl-1H-1,2,3-triazol-4-yl)-2-methylpyridin-3-yl)ethynyl)cyclopropyl)acetic acid], the IC50 under setting [1] came out at 33.6 nM.
For `Cc1nc(-c2nnn(C)c2COC(=O)N(C)CCCCF)ccc1C#CC1(CC(=O)O)CC1` [compound 034, 2-(1-((6-(5-((((4-fluorobutyl)(methyl)carbamoyl)oxy)methyl)-1-methyl-1H-1,2,3-triazol-4-yl)-2-methylpyridin-3-yl)ethynyl)cyclopropyl)acetic acid], under setting [1], the IC50 was determined as 52.7 nM.
For the compound `CCC(F)CN(C)C(=O)OCc1c(-c2ccc(C#CC3(CC(=O)O)CC3)c(C)n2)nnn1C` (stereo not shown) [compound 036, 2-(1-((6-(5-((((2-fluorobutyl)(methyl)carbamoyl)oxy)methyl)-1-methyl-1H-1,2,3-triazol-4-yl)-2-methylpyridin-3-yl)ethynyl)cyclopropyl)acetic acid], the IC50 under setting [1] stood at 103 nM.
Consider `Cc1nc(-c2nnn(C)c2COC(=O)N(C)CCC(C)F)ccc1C#CC1(CC(=O)O)CC1` (stereo not shown) [compound 037, 2-(1-((6-(5-((((3-fluorobutyl)(methyl)carbamoyl)oxy)methyl)-1-methyl-1H-1,2,3-triazol-4-yl)-2-methylpyridin-3-yl)ethynyl)cyclopropyl)acetic acid], for which the IC50 under setting [1] came to 105 nM.
For the compound `Cc1nc(-c2nnn(C)c2COC(=O)N(C)CCC(C)(F)F)ccc1C#CC1(CC(=O)O)CC1` [compound 038, 2-(1-((6-(5-((((3,3-difluorobutyl)(methyl)carbamoyl)oxy)methyl)-1-methyl-1H-1,2,3-triazol-4-yl)-2-methylpyridin-3-yl)ethynyl)cyclopropyl)acetic acid], under setting [1], the IC50 was 51.1 nM.
For `Cc1nc(-c2nnn(C)c2COC(=O)N(C)CC2CCCC2)ccc1C#CC1(CC(=O)O)CC1` [compound 039, 2-(1-((6-(5-((((cyclopentylmethyl)(methyl)carbamoyl)oxy)methyl)-1-methyl-1H-1,2,3-triazol-4-yl)-2-methylpyridin-3-yl)ethynyl)cyclopropyl)acetic acid], the IC50 under setting [1] was determined as 4.2 nM.
The same measure, in the same setting: under `Cc1nc(-c2nnn(C)c2COC(=O)N(C)CC2CC2(F)F)ccc1C#CC1(CC(=O)O)CC1` (stereo not shown) [compound 068] stands 129 nM; under `Cc1nc(-c2nnn(C)c2COC(=O)N(C)CC2CC2C)ccc1C#CC1(CC(=O)O)CC1` (stereo not shown) [compound 073], 79.1 nM.
As to `Cc1nc(-c2nnn(C)c2NC(=O)OC(C)C2CC2(F)F)ccc1C#CC1(CC(=O)O)CC1` (stereo not shown) [compound 081], the IC50 under setting [2] was 174 nM.
On to `CCC(F)(F)CN(C)C(=O)OCc1c(-c2ccc(C#CC3(CC(=O)O)CC3)c(C)n2)nnn1C` [compound 082], for which the IC50 under setting [1] was 157 nM.
The same measure, in the same setting: under `Cc1nc(-c2nnn(C)c2COC(=O)N(C)CC2CCC(F)(F)C2)ccc1C#CC1(CC(=O)O)CC1` (stereo not shown) [compound 094] stands 30.1 nM; under `Cc1nc(-c2nnn(C)c2COC(=O)N(C)CC2CCCC2(F)F)ccc1C#CC1(CC(=O)O)CC1` (stereo not shown) [compound 095], 39.9 nM.
Still for that read-out and setting: then `CCCCN(C)C(=O)OCc1c(-c2ccc(C#CC3(CC(=O)O)CC3)c(CC)n2)nnn1C` [compound 100], with 44.3 nM.
For `Cc1nc(-c2nnn(C)c2CNC(=O)OCc2cc(F)cnc2Cl)ccc1C#CC1(CC(=O)O)CC1` [compound 117], the IC50 under setting [2] was found to be 79.4 nM.
For `Cc1nc(-c2nnn(C)c2COc2nccc(C3CCC3)n2)ccc1C#CC1(CC(=O)O)CC1` [compound 194], under setting [1], the IC50 stood at 42.5 nM.
For `CCC(F)(F)[C@@H](C)OC(=O)Nc1c(-c2ccc(C#CC3(CC(=O)O)CC3)c(Cl)n2)nnn1C` [compound 209, (R)-2-(1-((2-chloro-6-(5-((((3,3-difluoropentan-2-yl)oxy)carbonyl)amino)-1-methyl-1H-1,2,3-triazol-4-yl)pyridin-3-yl)ethynyl)cyclopropyl)acetic acid], the IC50 under setting [1] is 12.7 nM.
